This note sets out measurements from patent publication US11208422B2, “Substituted bridged diazepane derivatives and use thereof as TASK-1 and TASK-3 inhibitors” (Bayer Pharma Aktiengesellschaft, priority 2017, dated 2021).

In assay [1] the target is recombinant TASK-1 (Homo sapiens (Human), UniProt O14649). Briefly: Inhibition of recombinant TASK-1 in stably transfected CHO cells (KCl-induced depolarization, voltage-sensitive dye, FLIPR). In kind it is cell-based. The note with it: depolarization induced by 40 mM potassium chloride, some mean values from multiple determinations. As for the experimental part:
(§1) The compounds of the invention were tested here with administration of 40 mM of potassium chloride in the presence of a voltage-sensitive dye using the method described in detail in the following references [Whiteaker et al., Validation of FLIPR membrane potential dye for high-throughput screening of potassium channel modulators, J. Biomol. Screen. 6 (5), 305-312 (2001); Molecular Devices FLIPR Application Note: Measuring membrane potential using the FLIPR® membrane potential assay kit on Fluorometric Imaging Plate Reader (FLIPR®) systems, http://www.moleculardevices.com/reagents-supplies/assay-kits/ion-channels/flipr-membrane-potential-assay-kits]. The activity of the test substances was determined as their ability to inhibit a depolarization induced in the recombinant cells by 40 mM potassium chloride. The concentration which can block half of this depolarization is referred to as IC50.

In assay [2] the target is recombinant TASK-3 (Homo sapiens (Human), UniProt Q9NPC2). Briefly: Inhibition of recombinant TASK-3 in stably transfected CHO cells (KCl-induced depolarization, voltage-sensitive dye, FLIPR). The note with it: depolarization induced by 40 mM potassium chloride, some mean values from multiple determinations. The class given is cell-based. As for the experimental part:
as §1

Chain of recombinant TASK-3 (Q9NPC2 whole entry): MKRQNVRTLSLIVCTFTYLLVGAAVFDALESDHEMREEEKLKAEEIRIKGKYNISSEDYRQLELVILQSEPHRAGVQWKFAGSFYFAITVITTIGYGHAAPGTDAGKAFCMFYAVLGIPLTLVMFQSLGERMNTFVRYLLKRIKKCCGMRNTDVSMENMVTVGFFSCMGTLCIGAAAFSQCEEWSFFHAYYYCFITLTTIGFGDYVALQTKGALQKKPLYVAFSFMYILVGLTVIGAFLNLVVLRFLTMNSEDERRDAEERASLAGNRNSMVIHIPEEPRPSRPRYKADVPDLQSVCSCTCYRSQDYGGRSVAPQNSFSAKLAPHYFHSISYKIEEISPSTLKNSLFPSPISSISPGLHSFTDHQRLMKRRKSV
Chain of recombinant TASK-1 (O14649 whole entry): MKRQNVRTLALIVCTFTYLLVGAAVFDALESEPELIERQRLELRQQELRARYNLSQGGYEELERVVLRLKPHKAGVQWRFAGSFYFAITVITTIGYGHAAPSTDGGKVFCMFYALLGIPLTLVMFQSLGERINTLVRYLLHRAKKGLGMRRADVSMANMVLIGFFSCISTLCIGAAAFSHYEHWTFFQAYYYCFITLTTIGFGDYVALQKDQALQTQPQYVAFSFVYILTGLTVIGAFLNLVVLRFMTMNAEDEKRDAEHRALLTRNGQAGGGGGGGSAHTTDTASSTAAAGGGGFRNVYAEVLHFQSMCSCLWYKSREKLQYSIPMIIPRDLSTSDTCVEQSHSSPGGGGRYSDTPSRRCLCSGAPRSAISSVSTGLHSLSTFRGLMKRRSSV

One may read the IC50 as the concentration needed to halve the response being measured. As to `Nc1nonc1C(=O)N1CCC2CCC1CN2Cc1c(-c2ccc(Cl)cc2)nc2ncccn12` (stereo not shown) [Example 24], the IC50 in assay [1] came out at 3100 nM; in assay [2], 24 nM.

Turning to `O=C(c1ccccc1F)N1CCC2CCC1CN2Cc1c(-c2ccc(Cl)cc2)nc2ncccn12` (stereo not shown) [Example 25], the IC50 in assay [1] is 1100 nM; in assay [2], 11 nM.

As for `COc1cccc(C(=O)N2CCC3CCC2CN3Cc2c(-c3ccc(Cl)cc3)nc3ccccn23)n1` (stereo not shown) [Example 26], the results for the IC50 in assay [1] and in assay [2] were 830 nM and 6.9 nM, respectively.

In the case of `COc1ccc(F)c(C(=O)N2CCC3CCC2CN3Cc2c(-c3ccc(Cl)cc3)nc3ccccn23)n1` (stereo not shown) [Example 27], the results for the IC50 in assay [1] and in assay [2] were 150 nM and 3 nM, respectively.

With `COc1ccc(Cl)c(C(=O)N2CCC3CCC2CN3Cc2c(-c3ccc(Cl)cc3)nc3ccccn23)n1` (stereo not shown) [Example 28], the IC50 stood at 280 nM in assay [1] and 5.6 nM in assay [2].

Consider `Nc1nonc1C(=O)N1CCC2CCC1CN2Cc1c(-c2ccc(Cl)cc2)nc2ccccn12` (stereo not shown) [Example 29], for which the IC50 in assay [1] was found to be 660 nM; in assay [2] it was 4.4 nM.

On to `O=C(c1ccccc1F)N1CCC2CCC1CN2Cc1c(-c2ccc(Cl)cn2)nc2ccccn12` (stereo not shown) [Example 30], for which the results for the IC50 in assay [1] and in assay [2] were 2300 nM and 220 nM, respectively.

In the case of `O=C(c1ccccc1F)N1CCC2CCC1CN2Cc1c(-c2ccc(Cl)cn2)nc2ncccn12` (stereo not shown) [Example 31], the IC50 in assay [1] was determined as 910 nM; in assay [2] it was 47 nM.

Consider `COc1cccc(C(=O)N2CCC3CCC2CN3Cc2c(-c3ccc(Cl)cc3)nc3ncccn23)n1` (stereo not shown) [Example 32], for which the values for the IC50 in assay [1] and in assay [2] were 130 nM and 4.1 nM, respectively.

In the case of `COc1ccc(F)c(C(=O)N2CCC3CCC2CN3Cc2c(-c3ccc(Cl)cc3)nc3ncccn23)n1` (stereo not shown) [Example 33], the IC50 came to 2600 nM in assay [1] and 110 nM in assay [2].

`COc1ccc(Cl)c(C(=O)N2CCC3CCC2CN3Cc2c(-c3ccc(Cl)cc3)nc3ncccn23)n1` (stereo not shown) [Example 34]: the IC50 in assay [1] is 4100 nM; in assay [2], 200 nM.

Regarding `Nc1nonc1C(=O)N1CCC2CCC1CN2Cc1c(-c2ccc(Cl)cc2)nc2ncccn12` (stereo not shown) [Example 35], the IC50 in assay [1] turned out to be 24000 nM; in assay [2], 500 nM.

Consider `O=C(c1ccccc1F)N1CCC2CCC1CN2Cc1c(-c2ccc(Cl)cc2)nc2ccccn12` (stereo not shown) [Example 36], for which the IC50 in assay [1] came to 30000 nM; in assay [2], 1000 nM.

As to `COc1cccc(C(=O)N2CCC3CCC2CN3Cc2c(-c3ccc(Cl)cc3)nc3ccccn23)n1` (stereo not shown) [Example 37], the IC50 stood at 30000 nM in assay [1] and 1000 nM in assay [2].

`COc1ccc(F)c(C(=O)N2CCC3CCC2CN3Cc2c(-c3ccc(Cl)cc3)nc3ccccn23)n1` (stereo not shown) [Example 38]: the IC50 in assay [1] is 250 nM; in assay [2], 4 nM.

For the molecule `COc1ccc(Cl)c(C(=O)N2CCC3CCC2CN3Cc2c(-c3ccc(Cl)cc3)nc3ccccn23)n1` (stereo not shown) [Example 39], the IC50 in assay [1] came out at 370 nM; in assay [2] it was 13 nM.

Regarding `Nc1nonc1C(=O)N1CCC2CCC1CN2Cc1c(-c2ccc(Cl)cc2)nc2ccccn12` (stereo not shown) [Example 40], the IC50 was determined as 3300 nM in assay [1] and 29 nM in assay [2].

Turning to `COc1cccc(C(=O)N2CCC3CCC2CN3Cc2c(-c3ccc(C(C)C)cc3)nc3ncccn23)n1` (stereo not shown) [Example 41], the IC50 was 2200 nM in assay [1] and 160 nM in assay [2].

Regarding `COc1ccc(Cl)c(C(=O)N2CCC3CCC2CN3Cc2c(-c3ccc(C(C)C)cc3)nc3ncccn23)n1` (stereo not shown) [Example 43], the IC50 in assay [1] was 2500 nM; in assay [2], 250 nM.

In the case of `CC(C)c1ccc(-c2nc3ncccn3c2CN2CC3CCC2CCN3C(=O)c2cccc(OC(F)F)n2)cc1` (stereo not shown) [Example 45], the IC50 was found to be 2900 nM in assay [1] and 170 nM in assay [2].

Turning to `CC(C)c1ccc(-c2nc3ncccn3c2CN2CC3CCC2CCN3C(=O)c2ccccc2F)cc1` (stereo not shown) [Example 46], the values for the IC50 in assay [1] and in assay [2] were 16000 nM and 1000 nM, respectively.

As to `CC(C)c1ccc(-c2nc3ncccn3c2CN2CC3CCC2CCN3C(=O)c2ccccc2F)cc1` (stereo not shown) [Example 47], the results for the IC50 in assay [1] and in assay [2] were 3100 nM and 180 nM, respectively.

Consider `COc1cccc(C(=O)N2CCC3CCC2CN3Cc2c(-c3ccc(C(C)C)cc3)nc3ncccn23)n1` (stereo not shown) [Example 48], for which the IC50 in assay [1] was found to be 12000 nM; in assay [2], 430 nM.

For `COc1ccc(F)c(C(=O)N2CCC3CCC2CN3Cc2c(-c3ccc(C(C)C)cc3)nc3ncccn23)n1` (stereo not shown) [Example 49], the IC50 turned out to be 5500 nM in assay [1] and 540 nM in assay [2].

On to `COc1ccc(Cl)c(C(=O)N2CCC3CCC2CN3Cc2c(-c3ccc(C(C)C)cc3)nc3ncccn23)n1` (stereo not shown) [Example 50], for which the figures for the IC50 in assay [1] and in assay [2] were 2500 nM and 440 nM, respectively.

For the molecule `CC(C)c1ccc(-c2nc3ncccn3c2CN2CC3CCC2CCN3C(=O)c2cccc(OC(F)F)n2)cc1` (stereo not shown) [Example 51], the IC50 in assay [1] came out at 1100 nM; in assay [2] it was 110 nM.

In the case of `CC(C)c1ccc(-c2nc3ncccn3c2CN2CC3CCC2CCN3C(=O)C2CCCC2)cc1` (stereo not shown) [Example 52], the IC50 was found to be 3800 nM in assay [1] and 140 nM in assay [2].

In the case of `COc1ccc(F)c(C(=O)N2CCC3CCC(C2)N3Cc2c(-c3ccc(C(C)C)cc3)nc3ncccn23)n1` (stereo not shown) [Example 53], the results for the IC50 in assay [1] and in assay [2] were 1300 nM and 380 nM, respectively.

`COc1ccc(Cl)c(C(=O)N2CCC3CCC(C2)N3Cc2c(-c3ccc(C(C)C)cc3)nc3ncccn23)n1` (stereo not shown) [Example 54]: the half-maximal inhibitory concentration (IC50) in assay [1] was 780 nM; in assay [2], 290 nM.

`COc1cccc(C(=O)N2CCC3CCC(C2)N3Cc2c(-c3ccc(C(C)C)cc3)nc3ncccn23)n1` (stereo not shown) [Example 55]: the IC50 is 4000 nM in assay [1] and 1000 nM in assay [2].

With `CC(C)c1ccc(-c2nc3ncccn3c2CN2C3CCC2CN(C(=O)c2cccc(OC(F)F)n2)CC3)cc1` (stereo not shown) [Example 56], the IC50 in assay [1] came to 8500 nM; in assay [2], 1000 nM.

Consider `CC(C)c1ccc(-c2nc3ncccn3c2CN2C3CCC2CN(C(=O)C2CCCC2)CC3)cc1` (stereo not shown) [Example 57], for which the IC50 in assay [1] worked out at 6200 nM; in assay [2], 2000 nM.

As for `COc1ccc(F)c(C(=O)N2CCC3CCC(C2)N3Cc2c(-c3ccc(C(C)C)cc3)nc3ncccn23)n1` (stereo not shown) [Example 58], the figures for the IC50 in assay [1] and in assay [2] were 2900 nM and 920 nM, respectively.

Turning to `COc1ccc(Cl)c(C(=O)N2CCC3CCC(C2)N3Cc2c(-c3ccc(C(C)C)cc3)nc3ncccn23)n1` (stereo not shown) [Example 59], the IC50 in assay [1] amounted to 1100 nM; in assay [2], 680 nM.

As to `COc1cccc(C(=O)N2CCC3CCC(C2)N3Cc2c(-c3ccc(C(C)C)cc3)nc3ncccn23)n1` (stereo not shown) [Example 60], the results for the IC50 in assay [1] and in assay [2] were 5200 nM and 1000 nM, respectively.

As to `CC(C)c1ccc(-c2nc3ncccn3c2CN2C3CCC2CN(C(=O)c2cccc(OC(F)F)n2)CC3)cc1` (stereo not shown) [Example 61], the IC50 in assay [1] came to 9400 nM; in assay [2], 1000 nM.

`CC(C)c1ccc(-c2nc3ncccn3c2CN2C3CCC2CN(C(=O)C2CCCC2)CC3)cc1` (stereo not shown) [Example 62]: the results for the IC50 in assay [1] and in assay [2] were 8400 nM and 1000 nM, respectively.

For the molecule `CC(C)c1ccc(-c2nc3ncccn3c2CN2C3CCC2CN(C(=O)c2ccccc2F)CC3)cc1` (stereo not shown) [Example 63], the IC50 is 8400 nM in assay [1] and 800 nM in assay [2].

Turning to `CC(C)c1ccc(-c2nc3ncccn3c2CN2C3CCC2CN(C(=O)c2ccccc2F)CC3)cc1` (stereo not shown) [Example 64], the values for the IC50 in assay [1] and in assay [2] were 7200 nM and 1800 nM, respectively.

In the case of `O=C(c1cccc(OC(F)(F)F)n1)N1CCC2CCC1CN2Cc1c(-c2ccc(Cl)cc2)nc2ncccn12` (stereo not shown) [Example 65], the IC50 in assay [1] is 1400 nM; in assay [2] it was 220 nM.

For `O=C(c1cccc(OC(F)(F)F)n1)N1CCC2CCC1CN2Cc1c(-c2ccc(Cl)cc2)nc2ncccn12` (stereo not shown) [Example 66], the IC50 came to 180 nM in assay [1] and 19 nM in assay [2].

Regarding `O=C(c1cccc(OC(F)F)n1)N1CCC2CCC1CN2Cc1c(-c2ccc(Cl)cc2)nc2ncccn12` (stereo not shown) [Example 67], the IC50 amounted to 3400 nM in assay [1] and 370 nM in assay [2].

Regarding `O=C(c1cccc(OC(F)F)n1)N1CCC2CCC1CN2Cc1c(-c2ccc(Cl)cc2)nc2ncccn12` (stereo not shown) [Example 68], the IC50 in assay [1] is 230 nM; in assay [2], 31 nM.

On to `COc1ccc(F)c(C(=O)N2C3CCC2CN(Cc2c(-c4ccc(C(C)C)cc4)nc4ncccn24)CC3)n1` (stereo not shown) [Example 102], for which the IC50 is 170 nM in assay [1] and 36 nM in assay [2].

For the molecule `COc1ccc(F)c(C(=O)N2C3CCC2CN(Cc2c(-c4ccc(C(C)C)cc4)nc4ncccn24)CC3)n1` (stereo not shown) [Example 103], the IC50 amounted to 1400 nM in assay [1] and 200 nM in assay [2].

Turning to `COc1cccc(C(=O)N2C3CCC2CN(Cc2c(-c4ccc(C(C)C)cc4)nc4ncccn24)CC3)n1` (stereo not shown) [Example 104], the IC50 in assay [1] came out at 600 nM; in assay [2], 31 nM.

For the molecule `COc1cccc(C(=O)N2C3CCC2CN(Cc2c(-c4ccc(C(C)C)cc4)nc4ncccn24)CC3)n1` (stereo not shown) [Example 105], the IC50 in assay [1] worked out at 3700 nM; in assay [2], 370 nM.
